Biological target: menin protein (Homo sapiens (Human), UniProt O00255)
Assay: biochemical
Type: binding
Settings: FP competitive binding; menin protein 4 nM, FAM-MM2 probe 2 nM
Summary of the method: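 Test compounds displaced FAM-MM2 (2 nM) from 4 nM menin after 30 min equilibration at room temperature in PBS buffer containing bovine γ-globulin, 4% DMSO and Triton X-100. Binding was followed by fluorescence polarization. Competition curves were fitted by nonlinear regression to give IC50 and Ki.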

Chain of menin protein (O00255 whole entry): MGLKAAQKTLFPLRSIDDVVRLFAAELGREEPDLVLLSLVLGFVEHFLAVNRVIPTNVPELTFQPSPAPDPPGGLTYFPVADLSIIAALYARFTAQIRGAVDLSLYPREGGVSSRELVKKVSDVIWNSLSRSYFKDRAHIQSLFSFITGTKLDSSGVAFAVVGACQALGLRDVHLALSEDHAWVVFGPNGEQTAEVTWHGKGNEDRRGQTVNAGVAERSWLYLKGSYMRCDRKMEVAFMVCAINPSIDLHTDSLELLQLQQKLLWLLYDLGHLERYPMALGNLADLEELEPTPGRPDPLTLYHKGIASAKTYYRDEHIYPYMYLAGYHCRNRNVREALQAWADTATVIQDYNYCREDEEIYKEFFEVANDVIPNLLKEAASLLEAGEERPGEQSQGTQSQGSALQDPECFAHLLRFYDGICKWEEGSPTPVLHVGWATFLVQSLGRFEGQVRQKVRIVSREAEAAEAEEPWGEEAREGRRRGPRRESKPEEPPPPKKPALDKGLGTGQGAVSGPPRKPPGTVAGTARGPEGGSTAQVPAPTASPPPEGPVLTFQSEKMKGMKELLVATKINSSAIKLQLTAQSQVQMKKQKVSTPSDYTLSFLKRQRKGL

Menin Binding Affinity IC50 (μM)	SMILES
No inhibition	N#Cc1ccc(OCCCN2CC(C3(C4CCCC4)NCCc4ccccc43)C2)cc1 (stereo not drawn) [compound 60, 4-(3-(3-(1-cyclopentyl-1,2,3,4-tetrahydroisoquinolin-1-yl)azetidin-1-yl)propoxy)benzonitrile]
No inhibition	CCN1Cc2ccccc2C(C2CCCC2)(C2CCN(S(=O)(=O)C3CN(c4ccc(C#N)cc4)C3)CC2)C1 (stereo not drawn) [compound 159, 4-(3-((4-(4-cyclopentyl-2-ethyl-1,2,3,4-tetrahydroisoquinolin-4-yl)piperidin-1-yl)sulfonyl)azetidin-1-yl)benzonitrile]
No inhibition	c1ccc(CN2CC(C3(C4CCCC4)NCCc4ccccc43)C2)cc1 (stereo not drawn) [compound 57, 1-(1-benzylazetidin-3-yl)-1-cyclopentyl-1,2,3,4-tetrahydroisoquinoline]

Same assay, conditions: FP competitive binding; menin protein 4 nM, FAM-MM2 probe 2 nM; read-out: Menin Binding Affinity IC50

SMILES	IC50
CN([C@@H]1CCC[C@H]1C(C#N)(c1ccccc1)C1CCN(CC2CN(c3ccc(S(=O)(=O)C4CC4)cc3)C2)CC1)S(C)(=O)=O (mixture of isomers) [compound 274, rac-N-((1R,2S)-2-(cyano(1-((1-(4-(cyclopropylsulfonyl)phenyl)azetidin-3-yl)methyl)piperidin-4-yl)(phenyl)methyl)cyclopentyl)-N-methanesulfonamide]	19.2 µM
CCCCC(=O)c1cc2cc(CCN3CCC(C4(C5CCCC5)NCCc5ccccc54)CC3)ccc2n1C (stereo not drawn) [compound 65, 1-(5-(2-(4-(1-cyclopentyl-1,2,3,4-tetrahydroisoquinolin-1-yl)piperidin-1-yl)ethyl)-1-methyl-1H-indol-2-yl)pentan-1-one]	2.8 µM
CCC(C)CC1(C2CCN(CCCOc3ccc(C#N)cc3)CC2)NCCc2ccccc21 (stereo not drawn) [compound 172, 4-(3-(4-(1-(2-methylbutyl)-1,2,3,4-tetrahydroisoquinolin-1-yl)piperidin-1-yl)propoxy)benzonitrile]	11.2 µM
CN1COCN([C@H]2CCC[C@@H]2C(C#N)(c2ccccc2)C2CCN(CC3CN(c4ccc(S(=O)(=O)c5ccncc5)cc4)C3)CC2)C1=O (mixture of isomers) [compound 279, rac-2-((1R,2S)-2-(5-methyl-4-oxo-1,3,5-oxadiazinan-3-yl)cyclopentyl)-2-phenyl-2-(1-((1-(4-(pyridin-4-ylsulfonyl)phenyl)azetidin-3-yl)methyl)piperidin-4-yl)acetonitrile]	0.065 µM
CCCC(C)C1(C2CCN(CCCOc3ccc(C#N)cc3)CC2)NCCc2ccccc21 (stereo not drawn) [compound 245, 4-(3-(4-(1-(pentan-2-yl)-1,2,3,4-tetrahydroisoquinolin-1-yl)piperidin-1-yl)propoxy)benzonitrile]	3.3 µM
O=S(=O)(c1ccc(CCN2CCc3cc(C4(C5CCCC5)NCCc5ccccc54)ccc3C2)cc1)C1CC1 (stereo not drawn) [compound 99, 1-cyclopentyl-2′-(4-(cyclopropylsulfonyl)phenethyl)-1,1′,2,2′,3,3′,4,4′-octahydro-1,6′-biisoquinoline]	0.802 µM
N#Cc1ccc2c(c1)CCN(C(=O)CN1CCC(C3(C4CCCC4)NCCc4ccccc43)CC1)C2 (stereo not drawn) [compound 83, 2-(2-(4-(1-cyclopentyl-1,2,3,4-tetrahydroisoquinolin-1-yl)piperidin-1-yl)acetyl)-1,2,3,4-tetrahydroisoquinoline-6-carbonitrile]	0.847 µM
N#Cc1ccc(OCCCN2CCC(C3(C4CCCC4)COCc4ccccc43)CC2)cc1 (stereo not drawn) [compound 35, 4-(3-(4-(4-cyclopentylisochroman-4-yl)piperidin-1-yl)propoxy)benzonitrile]	3.2 µM
CO[C@H]1CCC[C@@H]1C1(C2CCN(CCCOc3ccc(C#N)cc3)CC2)CN(C)Cc2ccccc21 (mixture of isomers) [compound 325, rac-4-(3-(4-(4-((1R,2S)-2-methoxycyclopentyl)-2-methyl-1,2,3,4-tetrahydroisoquinolin-4-yl)piperidin-1-yl)propoxy)benzonitrile]	1.8 µM
CNC(=O)O[C@@H]1CCC[C@H]1C(C#N)(c1ccccc1)C1CCN(C2CCN(c3ccc(S(=O)(=O)c4ccccc4)cc3)CC2)CC1 (mixture of isomers) [compound 235, rac-(1R,2S)-2-(cyano(phenyl)(1′-(4-(phenylsulfonyl)phenyl)-[1,4′-bipiperidin]-4-yl)methyl)cyclopentyl methylcarbamate]	6.2 µM
CNC(=O)[C@H]1CCC[C@@H]1C(C#N)(c1ccccc1)C1CCN(CC2CN(c3ccc(S(=O)(=O)C4CC4)cc3)C2)CC1 (mixture of isomers) [compound 334, rac-(1S,2S)-2-(cyano(1-((1-(4-(cyclopropylsulfonyl)phenyl)azetidin-3-yl)methyl)piperidin-4-yl)(phenyl)methyl)-N-methylcyclopentane-1-carboxylate]	3.2 µM
CN1CCC(C2(C3C=CCCN3)CN(C)Cc3ccccc32)CC1 (stereo not drawn) [compound 167, 2-methyl-4-(1-methylpiperidin-4-yl)-4-(1,2,5,6-tetrahydropyridin-2-yl)-1,2,3,4-tetrahydroisoquinoline]	172 µM
CNC(=O)O[C@H]1CCC[C@@H]1C(C#N)(c1ccccc1)C1CCN(CC2CN(c3ccc(C(C)(C)C)cc3)C2)CC1 (mixture of isomers) [compound 422, rac-(1S,2R)-2-((1-((1-(4-(tert-butyl)phenyl)azetidin-3-yl)methyl)piperidin-4-yl)(cyano)(phenyl)methyl) cyclopentyl methylcarbamate]	0.028 µM
C[C@@H]1CC(C(C#N)(c2ccccc2)C2CCCC2)C[C@H](C)N1CCCOc1ccc(C#N)cc1 (stereo partly drawn) [compound 121, 4-(3-((2S,6R)-4-(cyano(cyclopentyl)(phenyl)methyl)-2,6-dimethylpiperidin-1-yl)propoxy)benzonitrile]	13.1 µM
CNC(=O)O[C@@H]1CCC[C@H]1C(C#N)(c1ccccc1)C1CCN(CC2CN(c3ccc(C(C)(C)C)cc3)C2)CC1 (mixture of isomers) [compound 423, rac-(1R,2S)-2-((1-((1-(4-(tert-butyl)phenyl)azetidin-3-yl)methyl)piperidin-4-yl)(cyano)(phenyl)methyl) cyclopentyl methylcarbamate]	0.776 µM
N#Cc1ccc(NCCCN2CCC(C3(C4CCCC4)NCCc4ccccc43)CC2)cn1 (stereo not drawn) [compound 59, 5-((3-(4-(1-cyclopentyl-1,2,3,4-tetrahydroisoquinolin-1-yl)piperidin-1-yl)propyl)amino)picolinonitrile]	2.3 µM
COC[C@@H]1CCC[C@H]1C(C#N)(c1ccccc1)C1CCN(CC2CN(c3ccc(S(=O)(=O)C4CC4)cc3)C2)CC1 (mixture of isomers) [compound 266, rac-2-(1-((1-(4-(cyclopropylsulfonyl)phenyl)azetidin-3-yl)methyl)piperidin-4-yl)-2-((1R,2R)-2-(methoxymethyl)cyclopentyl)-2-phenylacetonitrile]	4.5 µM
CN1Cc2cccc(F)c2C(C2CCCC2)(C2CCN(CCCOc3ccc(C#N)cc3)CC2)C1 (stereo not drawn) [compound 31, 4-(3-(4-(4-cyclopentyl-5-fluoro-2-methyl-1,2,3,4-tetrahydroisoquinolin-4-yl)piperidin-1-yl)propoxy)benzonitrile]	0.037 µM
CCc1cc(S(=O)(=O)c2ccc(N3CC(CN4CCC(C5(C6CCCC6)CN(CC)Cc6ccccc65)CC4)C3)cc2)ccn1 (stereo not drawn) [compound 155, 4-cyclopentyl-2-ethyl-4-(1-((1-(4-((2-ethylpyridin-4-yl)sulfonyl)phenyl)azetidin-3-yl)methyl)piperidin-4-yl)-1,2,3,4-tetrahydroisoquinoline]	0.016 µM
N#Cc1ccc(N2CC(CN3CCC(C4(C5CCCC5)NCCc5ccccc54)CC3)C2)c(Cl)c1 (stereo not drawn) [compound 139, 3-chloro-4-(3-((4-(1-cyclopentyl-1,2,3,4-tetrahydroisoquinolin-1-yl)piperidin-1-yl)methyl)azetidin-1-yl)benzonitrile]	0.073 µM
CC(=O)O[C@H]1CCC[C@@H]1C(C#N)(c1cccc(F)c1)C1CCN(CC2CN(c3ccc(S(=O)(=O)c4ccccc4)cc3)C2)CC1 (mixture of isomers) [compound 312, rac-(1S,2R)-2-(cyano(3-fluorophenyl)(1-((1-(4-(phenylsulfonyl)phenyl)azetidin-3-yl)methyl)piperidin-4-yl)methyl)cyclopentyl acetate]	0.013 µM
N#CC(c1ccccc1)(C1CCCC1)C1CCN(CC2CN(c3ccc(S(=O)(=O)c4ccncc4)cc3)C2)CC1 (stereo not drawn) [compound 190, 2-cyclopentyl-2-phenyl-2-(1-((1-(4-(pyridin-4-ylsulfonyl)phenyl)azetidin-3-yl)methyl)piperidin-4-yl)acetonitrile]	2 µM
FCC1(CF)CC(N2CCC(C3(C4CCCC4)NCCc4ccccc43)CC2)C1 (stereo not drawn) [compound 56, 1-(1-(3,3-bis(fluoromethyl)cyclobutyl)piperidin-4-yl)-1-cyclopentyl-1,2,3,4-tetrahydroisoquinoline]	18.2 µM
CN1Cc2cccc(F)c2C(C2CCCC2)(C2CCN(CC3CN(c4ccc(C#N)cc4)C3)CC2)C1 (stereo not drawn) [compound 33, 4-(3-((4-(4-cyclopentyl-5-fluoro-2-methyl-1,2,3,4-tetrahydroisoquinolin-4-yl)piperidin-1-yl)methyl)azetidin-1-yl)benzonitrile]	0.019 µM
N#Cc1ccc(N2CC(C(=O)N3CCC(C4(C5CCCC5)NCCc5ccccc54)CC3)C2)cc1 (stereo not drawn) [compound 128, 4-(3-(4-(1-cyclopentyl-1,2,3,4-tetrahydroisoquinolin-1-yl)piperidine-1-carbonyl)azetidin-1-yl)benzonitrile]	4.1 µM
CS(=O)(=O)c1ccc(OCCCN2CCC(C3(C4CCCC4)NCCc4ccccc43)CC2)cc1 (stereo not drawn) [compound 296, 1-cyclopentyl-1-(1-(3-(4-(methylsulfonyl)phenoxy)propyl)piperidin-4-yl)-1,2,3,4-tetrahydroisoquinoline]	0.4 µM
O=C(CN1CCC(C2(C3CCCC3)NCCc3ccccc32)CC1)N1CCCC1 (stereo not drawn) [compound 74, 2-(4-(1-cyclopentyl-1,2,3,4-tetrahydroisoquinolin-1-yl)piperidin-1-yl)-1-(pyrrolidin-1-yl)ethan-1-one]	3.1 µM
